Test results taken from publication PMC2362906, “Effects of new 17α-hydroxylase/C17,20-lyase inhibitors on LNCaP prostate cancer cell growth in vitro and in vivo” (British Journal of Cancer, 1999).

Key:
serum PSA = assay: Serum PSA (ELISA) in LNCaP tumour-bearing SCID mice; assay type: in vivo, male SCID mice; details: first experiment, 50 mg kg-1 day-1, 28 days
From the text: (§1) Prostate cancer is the most common malignancy and the second leading cause of cancer-related deaths among men in the US and the UK (Shibata et al, 1998). […] Steroidal 17-hydroxylase/C17,20 -lyase (P450c17) (EC 1.14.99.0) was selected as the target enzyme for inhibition, as this is a key regulatory enzyme of androgen synthesis. P450c17 catal- yses two sequential reactions in the steroid biosynthetic pathway and converts pregnenolone and progesterone to the C-19 andro- gens, dehydroepiandrosterone and androstenedione respectively. This enzyme has an identical amino acid sequence in testicular and adrenal tissues (Chung et al, 1987). […] In order to evaluate the effectiveness of these inhibitors we developed a multi-step system, which utilized the LNCaP human prostate cancer cell line. LNCaP cells remain the only androgen receptor (AR)-positive prostate cancer cell line, that can be readily grown in tissue culture (Horoszewicz et al, 1983). These cells respond to androgens with increased cell proliferation and elevated expression of prostate specific antigen (PSA) (Berns et al, 1993). LNCaP cells at early passages are not only androgen-responsive, but also androgen- dependent (Pousette et al, 1997). This is similar to the situation in most tumours of prostatic cancer patients, which are initially highly responsive and dependent on androgens. […] Therefore, we employed LNCaP cells as a model for evaluating the effectiveness of our new inhibitors of androgen synthesis. In this study the compounds selected for evaluation were two groups of azolyl steroids. […] Here we report on the application of LNCaP-CYP17-transfected cells for determining the inhibitory potencies of the new compounds against the P450c17 enzyme. […] We designed and evaluated two groups of azolyl steroids: 5-non-competitive inhibitors (5NCIs), VN/63-1, VN/85-1, VN/87-1 and their corresponding 4 derivatives (4NCIs), VN/107-1, VN/108-1 and VN/109-1. The human P450c17 gene was transfected into LNCaP human prostate cancer cells, and the resultant LNCaP- CYP17 cells were utilized to evaluate the inhibitory potency of the new azolyl steroids. […] We further evaluated our inhibitors in male severe combined immuno- deficient mice bearing LNCaP tumour xenografts. […] We also utilized wild-type LNCaP prostatic carcinoma cells for evaluating the direct effects of new azolyl steroids on proliferation of these cells in vitro and in vivo. MATERIALS AND METHODS Materials The human prostate cancer cell line LNCaP was obtained from the American Type Culture Collection (Rockville, MD, USA). RPMI- 1640 medium, trypsin-EDTA (0.25%/0.02%), penicillin/strepto- mycin (P/S), geniticin (G418), and LipofectAMINE were from Gibco-BRL (Grand Island, NY, USA). Fetal bovine serum (FBS) was obtained from Summit Biotechnology Inc. (Fort Collins, CO, USA) and steroid-free FBS was prepared as described previously (Klus et al, 1996). Phenol red free IMEM and trypsin-versine were purchased from Biofluids Inc. (Rockville, MD, USA). Chloroform and acetonitrile were purchased from JT Baker, Inc (Phillipsburg, NJ, USA). Hydroxypropyl cellulose (HPC) was purchased from Sigma Chemical Co. (St Louis, MO, USA). The PSA enzyme- linked immunusorbent assay (ELISA) kit was from DSL Inc. (Webster, TX, USA). Matrigel was generously supplied by Dr Hynda Kleinman (NIH, Bethesda, MD, USA). […]

serum DHT = assay: Serum DHT (RIA) in SCID mice; assay type: in vivo, male SCID mice; details: 28 days of treatment, 50 mg kg-1 day-1
From the text: (§2) Prostate cancer is the most common malignancy and the second leading cause of cancer-related deaths among men in the US and the UK (Shibata et al, 1998). […] Steroidal 17-hydroxylase/C17,20 -lyase (P450c17) (EC 1.14.99.0) was selected as the target enzyme for inhibition, as this is a key regulatory enzyme of androgen synthesis. P450c17 catal- yses two sequential reactions in the steroid biosynthetic pathway and converts pregnenolone and progesterone to the C-19 andro- gens, dehydroepiandrosterone and androstenedione respectively. This enzyme has an identical amino acid sequence in testicular and adrenal tissues (Chung et al, 1987). […] In order to evaluate the effectiveness of these inhibitors we developed a multi-step system, which utilized the LNCaP human prostate cancer cell line. LNCaP cells remain the only androgen receptor (AR)-positive prostate cancer cell line, that can be readily grown in tissue culture (Horoszewicz et al, 1983). These cells respond to androgens with increased cell proliferation and elevated expression of prostate specific antigen (PSA) (Berns et al, 1993). LNCaP cells at early passages are not only androgen-responsive, but also androgen- dependent (Pousette et al, 1997). This is similar to the situation in most tumours of prostatic cancer patients, which are initially highly responsive and dependent on androgens. […] Therefore, we employed LNCaP cells as a model for evaluating the effectiveness of our new inhibitors of androgen synthesis. In this study the compounds selected for evaluation were two groups of azolyl steroids. […] Here we report on the application of LNCaP-CYP17-transfected cells for determining the inhibitory potencies of the new compounds against the P450c17 enzyme. […] We designed and evaluated two groups of azolyl steroids: 5-non-competitive inhibitors (5NCIs), VN/63-1, VN/85-1, VN/87-1 and their corresponding 4 derivatives (4NCIs), VN/107-1, VN/108-1 and VN/109-1. The human P450c17 gene was transfected into LNCaP human prostate cancer cells, and the resultant LNCaP- CYP17 cells were utilized to evaluate the inhibitory potency of the new azolyl steroids. […] We further evaluated our inhibitors in male severe combined immuno- deficient mice bearing LNCaP tumour xenografts. […] We also utilized wild-type LNCaP prostatic carcinoma cells for evaluating the direct effects of new azolyl steroids on proliferation of these cells in vitro and in vivo. MATERIALS AND METHODS Materials The human prostate cancer cell line LNCaP was obtained from the American Type Culture Collection (Rockville, MD, USA). RPMI- 1640 medium, trypsin-EDTA (0.25%/0.02%), penicillin/strepto- mycin (P/S), geniticin (G418), and LipofectAMINE were from Gibco-BRL (Grand Island, NY, USA). Fetal bovine serum (FBS) was obtained from Summit Biotechnology Inc. (Fort Collins, CO, USA) and steroid-free FBS was prepared as described previously (Klus et al, 1996). Phenol red free IMEM and trypsin-versine were purchased from Biofluids Inc. (Rockville, MD, USA). Chloroform and acetonitrile were purchased from JT Baker, Inc (Phillipsburg, NJ, USA). Hydroxypropyl cellulose (HPC) was purchased from Sigma Chemical Co. (St Louis, MO, USA). The PSA enzyme- linked immunusorbent assay (ELISA) kit was from DSL Inc. (Webster, TX, USA). Matrigel was generously supplied by Dr Hynda Kleinman (NIH, Bethesda, MD, USA). Inhibitors of androgen synthesis: VN/63-1, VN/85-1, VN/87-1, VN/107-1, VN/108-1 and VN/109-1 were synthesized in our labo- ratory as previously described (Njar et al, 1998). […] Metribolone [17-methyl-3 H]-R1881 ([3 H]-R1881: specific activity 86 Ci mmol-1 ) was purchased from Dupont NEN (Boston, MA, USA).

LNCaP cells [1] = assay: DHT-stimulated wild-type LNCaP cell growth; assay type: cell-based, human; details: 0.03 nM DHT, 9 days
From the text: as §2

[2] = molecular target: human prostatic 5-reductase; design: method as in Njar et al, 1998; details: human prostatic microsomes; reported previously; ref Njar et al, 1998; cited from earlier work
[3] = molecular target: T1, human 17α-hydroxylase/C17,20-lyase (P450c17) expressed in LNCaP-CYP17 cells (Homo sapiens, UniProt P05093); assay: [3H]-acetic acid releasing assay (AARA) with LNCaP-CYP17 cells; assay type: cell-based; details: for IC50: LNCaP-CYP17 cells, 7 μM [21-3H]17-OHP5, 16 h, mean ± s.e.m., three experiments
T1 sequence (P05093 9-508 limits assumed): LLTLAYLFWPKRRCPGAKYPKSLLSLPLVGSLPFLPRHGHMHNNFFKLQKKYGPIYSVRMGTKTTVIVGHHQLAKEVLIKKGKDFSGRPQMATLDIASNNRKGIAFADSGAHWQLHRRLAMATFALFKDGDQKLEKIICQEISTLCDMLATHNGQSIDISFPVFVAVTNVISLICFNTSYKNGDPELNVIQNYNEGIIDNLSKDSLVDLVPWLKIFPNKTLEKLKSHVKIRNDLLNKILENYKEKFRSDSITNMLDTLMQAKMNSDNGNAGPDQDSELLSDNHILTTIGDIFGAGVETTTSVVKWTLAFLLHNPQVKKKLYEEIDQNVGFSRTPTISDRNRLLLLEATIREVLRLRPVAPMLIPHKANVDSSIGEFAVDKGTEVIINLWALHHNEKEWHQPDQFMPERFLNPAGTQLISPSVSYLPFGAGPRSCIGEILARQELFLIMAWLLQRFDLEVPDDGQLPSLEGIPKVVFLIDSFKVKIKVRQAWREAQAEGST

LNCaP tumour xenografts = assay: LNCaP tumour xenograft growth in male SCID mice; assay type: in vivo; details: 50 mg kg-1 day-1, 28 days; for Effect on tumour growth (words): second experiment
From the text: as §2

serum testosterone = assay: Serum testosterone (RIA) in SCID mice; assay type: in vivo, male SCID mice; details: 28 days of treatment, 50 mg kg-1 day-1
From the text: as §2

LNCaP cells [4] = assay: Testosterone-stimulated wild-type LNCaP cell growth; assay type: cell-based, human; details: 0.1 nM testosterone; for Effect on testosterone-stimulated cell growth (words): 0.5-5.0 μM compound
From the text: as §2

LNCaP cells [5] = assay: LNCaP cell growth in steroid-free medium; assay type: cell-based, human; details: high concentrations (2.5 and 5.0 μM), 9 days
From the text: as §1, with “USA).” for “USA). Fetal bovine serum (FBS) was obtained from Summit Biotechnology Inc. (Fort Collins, CO, USA) and steroid-free FBS was prepared as described previously (Klus et al, 1996). Phenol red free IMEM and trypsin-versine were purchased from Biofluids Inc. (Rockville, MD, USA). Chloroform and acetonitrile were purchased from JT Baker, Inc (Phillipsburg, NJ, USA). Hydroxypropyl cellulose (HPC) was purchased from Sigma Chemical Co. (St Louis, MO, USA). The PSA enzyme- linked immunusorbent assay (ELISA) kit was from DSL Inc. (Webster, TX, USA). Matrigel was generously supplied by Dr Hynda Kleinman (NIH, Bethesda, MD, USA).”

[6] = Table 2, first experiment, control 243.8
[7] = Table 2, first experiment, control 1.043
[8] = Table 3, second experiment, control 239.2
[9] = Table 3, second experiment, control 0.205

Structure (SMILES)	Serum DHT (serum DHT; [6])	IC50 [2]	IC50 [3]	Serum Testosterone (serum testosterone; [7])	Stimulation of cell growth compared to DHT-treated cells (LNCaP cells [1])	Serum DHT (serum DHT; [8])	Effect on tumour growth (words) (LNCaP tumour xenografts)	Serum Testosterone (serum testosterone; [9])	Effect on testosterone-stimulated cell growth (words) (LNCaP cells [4]; 9 days)	also measured
C[C@]12CC[C@H](O)CC1=CC[C@@H]1[C@@H]2CC[C@]2(C)C(n3ccnc3)=CC[C@@H]12 [VN/85-1]	143.7 pg/mL	> 5000 nM	1.25 ± 0.44 nM	0.141 ng/mL	–	–	–	–	–	Serum PSA levels versus control (serum PSA): significantly lower; Concentration that completely blocked DHT stimulation (LNCaP cells [1]): 1.0 µM; Reduction of tumour weights compared to vehicle-treated mice (LNCaP tumour xenografts; first experiment): 27%; Concentration that completely inhibited the growth stimulatory effect of testosterone (LNCaP cells [4]; 9 days): 1.0 µM
CC(=O)[C@@]1(O)CC[C@H]2[C@@H]3CC=C4C[C@@H](O)CC[C@]4(C)[C@H]3CC[C@@]21C [[213 H]17-hydroxypregnenolone, [21-3 H]17-Hydroxypregnenolone, reference compound]	–	–	–	–	–	–	–	–	–	Km ([3]; substrate 0.5-20 μM, 16 h, 37C, RADLIG software): 870 nM
CC(C)C(=O)Nc1ccc([N+](=O)[O-])c(C(F)(F)F)c1 [Flutamide, reference compound]	–	–	> 5000 nM	–	10-20%	–	–	–	–	Inhibition of testosterone stimulated cell growth (LNCaP cells [4]; compound at 2.5 and 5.0 μM): ~ 50%
C[C@]12CCC(=O)C=C1CC[C@@H]1[C@@H]2CC[C@]2(C)C(n3cncn3)=CC[C@@H]12 [VN/107-1]	–	152 nM	12.4 nM	–	–	180.2 pg/mL	no significant effects on tumour growth or tumour weights	0.153 ng/mL	ineffective against testosterone-stimulated cell growth	Effect on DHT-induced cell proliferation (LNCaP cells [1]; 0.5-5.0 μM compound): least effective inhibitors of androgen-induced cell pro- liferation; Effect on tumour growth (words) (LNCaP tumour xenografts; listed as VN/107): Neither VN/63-1, VN/107 nor ketoconazole had any appreciable effects
CC(=O)N1CCN(c2ccc(OCC3COC(Cn4ccnc4)(c4ccc(Cl)cc4Cl)O3)cc2)CC1 (stereo not drawn) [Ketoconazole, reference compound]	224.3 pg/mL	> 5000 nM	–	1.526 ng/mL	10-20%	218.0 pg/mL	Neither VN/63-1, VN/107 nor ketoconazole had any appreciable effects	0.298 ng/mL	stimulate cell proliferation at low concentrations	Stimulation of LNCaP cell growth in steroid-free media (LNCaP cells [5]): 30-40%; Effect on testosterone-stimulated cell growth (words) (LNCaP cells [4]; 9 days, listed as ketoconazole): biphasic growth responses
